Article doi:10.1101/2024.10.10.617599v1 (biorxiv, 2024)
Where a name gives a salt, the structure may show the parent alone.

Experiments:
hP2Y12R = hP2Y12R (Homo sapiens, UniProt Q9H244); assay: radioligand displacement of [3H]AZ12464237; format: binding
rP2Y12R [1] = target: T1, rP2Y12R (Rattus norvegicus, UniProt Q9EPX4); assay: radioligand displacement of [3H]AZ12464237; format: binding
rP2Y12R [2] = target: T1, rP2Y12R; assay: radioligand saturation binding, HEK […] membranes

Chain of hP2Y12R (Q9H244 whole entry): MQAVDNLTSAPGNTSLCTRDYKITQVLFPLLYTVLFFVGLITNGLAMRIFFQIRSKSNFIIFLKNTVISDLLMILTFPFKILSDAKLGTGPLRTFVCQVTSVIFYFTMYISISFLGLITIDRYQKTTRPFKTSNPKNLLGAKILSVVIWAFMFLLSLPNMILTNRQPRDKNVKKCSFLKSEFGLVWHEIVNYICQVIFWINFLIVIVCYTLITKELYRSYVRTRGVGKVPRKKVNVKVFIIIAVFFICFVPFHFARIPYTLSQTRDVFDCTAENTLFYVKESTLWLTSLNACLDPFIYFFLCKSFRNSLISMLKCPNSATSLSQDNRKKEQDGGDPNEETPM
T1 sequence (Q9EPX4 whole entry): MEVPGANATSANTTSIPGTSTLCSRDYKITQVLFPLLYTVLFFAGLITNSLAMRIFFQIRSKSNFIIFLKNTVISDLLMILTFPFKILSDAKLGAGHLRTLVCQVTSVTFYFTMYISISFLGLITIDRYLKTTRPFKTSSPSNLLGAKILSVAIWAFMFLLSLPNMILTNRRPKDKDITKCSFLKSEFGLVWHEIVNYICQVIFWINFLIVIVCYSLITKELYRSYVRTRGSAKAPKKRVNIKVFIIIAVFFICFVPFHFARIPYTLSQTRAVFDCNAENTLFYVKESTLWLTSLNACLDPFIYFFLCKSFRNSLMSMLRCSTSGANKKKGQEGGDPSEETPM

Ki (hP2Y12R) | Ki (rP2Y12R [1]) | Kd (rP2Y12R [2]) | Compound
20.1 ± 0.25 nM | 48.8 ± 15.2 nM |  | CCCSc1nc(N[C@@H]2C[C@H]2c2ccc(F)c(F)c2)c2nnn([C@@H]3C[C@H](OCCO)[C@@H](O)[C@H]3O)c2n1 [ticagrelor]
7 ± 0.54 nM | 55 ± 14.3 nM |  | CNc1cc2[nH]c(=O)n(-c3ccc(NC(=O)NS(=O)(=O)c4ccc(Cl)s4)cc3)c(=O)c2cc1F [elinogrel, 5-chloro-N-[[[4-[6-Fluoro-1,4-dihydro-7-(methylamino)-2,4-dioxo-3(2H)-quinazolinyl]phenyl]amino]carbonyl]-2-thiophenesulfonamide]
> 10000 nM |  |  | O=C(O)c1cc(-c2ccc(C3CCNCC3)cc2)c2ccc(-c3ccc(C(F)(F)F)cc3)cc2c1 [PPTN·HCl, 4-[4-(4-piperidinyl)phenyl]-7-[4-(trifluoromethyl)phenyl]-2-naphthalenecarboxylic acid hydrochloride]
 |  | 16.6 ± 3.37 nM | CCOC(=O)c1cc(C#N)c(N2CC(NC(=O)NS(=O)(=O)c3ccc(Cl)s3)C2)nc1C [AZ12464237, Ethyl 6-(3-(3-((5-chlorothiophen-2-yl)sulfonyl)ureido)azetidin-1-yl)-5-cyano-2-methylnicotinate]
3240 ± 1850 nM |  |  | Cc1nc(N=Nc2cc([N+](=O)[O-])ccc2Cl)c(COP(=O)(O)O)c(C=O)c1O [MRS2211, 2-[(2-chloro-5-nitrophenyl)azo]-5-hydroxy-6-methyl-3-[(phosphonooxy)methyl]-4-pyridinecarboxaldehyde disodium salt]
18.9 ± 2.61 nM |  |  | CSc1nc(N)c2ncn([C@@H]3O[C@H](COP(=O)(O)OP(=O)(O)O)[C@@H](O)[C@H]3O)c2n1 [2MeSADP, 2-methylthio-adenosine-5’-diphosphate]
2.66 ± 0.6 nM |  |  | CCOC(=O)c1cc(C#N)c(N2CCC(C(=O)NS(=O)(=O)Cc3ccccc3)CC2)nc1C [AZD1283, Ethyl 5-cyano-2-methyl-6-[4-[[[(phenylmethyl)sulfonyl]amino]carbonyl]-1-piperidinyl]-3-pyridinecarboxylate]
25.6 ± 3.05 nM |  |  | Nc1c(S(=O)(=O)O)cc(Nc2ccc(Nc3ccccc3)c(S(=O)(=O)O)c2)c2c1C(=O)c1ccccc1C2=O [PSB0739]

Compound | Ki (hP2Y12R) | Ki (rP2Y12R [1]) | Kd (rP2Y12R [2])
S=C=Nc1cccc(NC(=S)NCCCCNC(=S)Nc2cccc(N=C=S)c2)c1 [MRS2578] | > 100000 nM |  | 
